Consider 17 compounds from patent US9580390B2, “Indazole compounds as kinase inhibitors and method of treating cancer with same” (University Health Network, priority 2011, dated 2017).

Molecules are shown by their SMILES. Where two headings read alike, the source gives them in different places. Where only a bound is given, the exact number is not on record here.

For assay [1], the system named is colon cancer cells (HCT116). In words: Cancer cell line growth inhibition (SRB assay). Format: cell-based. The settings on record: Homo sapiens, HCT-116, read-out: Cancer Cell Line GI50 Range HCT116. On the technique in general: The SRB assay estimates cell density from bound dye.
Procedure: Breast cancer cells (MDA-MB-231), colon cancer cells (HCT116) and ovarian cancer cells (PA-1) were seeded (1000 to 4000 in 80 μl per well depending on the cell growth rate) into 96 well plates 24 hours before compound overlay. Compounds were prepared as 10 mM stock solutions in 100% DMSO which were diluted with DMEM (Dulbecco's Modified Eagle's Medium) cell growth Medium (Invitrogen, Burlington, ON, Canada) containing 10% FBS (Fetal Bovine Serum) to concentrations ranging from 50 nM to 250 μM. Aliquots (20 μl) from each concentration were overlaid to 80 μl of the pre-seeded cells in the 96 well plates to make final concentrations of 10 nM to 50 μM. The cells were cultured for 5 days before the Sulforhodamine B assay (SRB) was performed to determine the compound's cell growth inhibition activity.
Sulforhodamine B (purchased from Sigma, Oakville, ON, Canada) is a water-soluble dye that binds to the basic amino acids of the cellular proteins. Thus, colorimetric measurement of the bound dye provides an estimate of the total protein mass that is related to the cell number. the cells are fixed in situ by gently aspirating off the culture media and adding 50 μl ice cold 10% Trichloroacetic Acid (TCA) per well and incubate at 4° C. for 30-60 min. The plates are washed with H2O five times and allowed to air dry for 5 min. Addition of 50 μl 0.4% (w/v) SRB solution in 1% (v/v) acetic acid to each well and incubation for 30 min at RT completes the staining reaction. Following staining, plates are washed four times with 1% acetic acid to remove unbound dye and then allowed to air dry for 5 min. The stain is solubilized with 100 μl of 10 mM Tris pH 10.5 per well. Absorbance is read at 570 nm.
The percentage (%) of relative growth inhibition was calculated by comparing to DMSO treated only cells (100%). GI50's were determined for compounds with cytotoxic activity. The GI50 was calculated using GraphPad PRISM software (GraphPad Software, Inc., San Diego, Calif., USA).
The target of the next assay is T1, human TTK (Homo sapiens, UniProt P33981).
T1 construct: amino terminal GST fusion of full length human TTK; purchased Invitrogen
T1 sequence (P33981 1-857): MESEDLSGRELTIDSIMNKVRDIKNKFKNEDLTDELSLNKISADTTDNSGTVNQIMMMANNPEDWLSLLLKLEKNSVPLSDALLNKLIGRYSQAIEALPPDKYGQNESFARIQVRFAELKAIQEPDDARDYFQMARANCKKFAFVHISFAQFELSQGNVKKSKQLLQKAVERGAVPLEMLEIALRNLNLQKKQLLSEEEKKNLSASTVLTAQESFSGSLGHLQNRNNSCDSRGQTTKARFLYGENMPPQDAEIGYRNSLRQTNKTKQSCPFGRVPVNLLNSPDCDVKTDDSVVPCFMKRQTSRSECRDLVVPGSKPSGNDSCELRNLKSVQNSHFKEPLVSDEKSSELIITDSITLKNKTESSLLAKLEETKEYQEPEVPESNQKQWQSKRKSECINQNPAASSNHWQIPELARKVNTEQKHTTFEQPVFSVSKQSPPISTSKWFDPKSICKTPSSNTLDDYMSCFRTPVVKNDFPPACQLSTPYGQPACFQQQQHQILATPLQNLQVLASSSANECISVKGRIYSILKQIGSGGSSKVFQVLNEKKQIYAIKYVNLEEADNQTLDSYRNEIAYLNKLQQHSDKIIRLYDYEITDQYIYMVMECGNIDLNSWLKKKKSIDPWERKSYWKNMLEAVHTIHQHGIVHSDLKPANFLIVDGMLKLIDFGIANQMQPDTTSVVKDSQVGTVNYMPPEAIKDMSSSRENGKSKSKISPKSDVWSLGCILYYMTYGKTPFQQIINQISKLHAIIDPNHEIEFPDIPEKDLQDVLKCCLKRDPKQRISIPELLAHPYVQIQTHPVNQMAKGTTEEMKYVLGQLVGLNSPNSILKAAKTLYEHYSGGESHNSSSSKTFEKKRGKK
Nature of the assay: TTK inhibition assay (indirect ELISA). The format is biochemical. The settings on record: read-out: TTK IC50 Range.

Assay [2] deals with ovarian cancer cells (PA-1). Nature of the assay: Cancer cell line growth inhibition (SRB assay). The format is cell-based. The settings on record: read-out: Cancer Cell Line GI50 Range PA-1.
Where [3] appears, read: HCT116 colon cancer cells, SRB assay.
The mark [4] stands for this setting: PA-1 ovarian cancer cells, SRB assay.

As usually defined, the GI50 is the concentration at which growth is held to half of that of the control. As a reminder, the IC50 is the point on the concentration scale where inhibition reaches its midpoint. For the compound `O=C(NC(c1ccccn1)C1CCOCC1)c1ccc2[nH]nc(-c3ccc(OC4CCN(C5COC5)CC4)cc3)c2c1` (stereo not drawn) [Example A293, 3-(4-((1-(oxetan-3-yl)piperidin-4-yl)oxy)phenyl)-N-(pyridin-2-yl(tetrahydro-2H-pyran-4-yl)methyl)-1H-indazole-5-carboxamide], the 50% growth inhibitory concentration (GI50) is 100 to 500 nM in assay [1] and 100 to 500 nM in assay [2] (Homo sapiens, PA-1). Moreover, the IC50 on human TTK is < 100 nM.
For `O=C(N[C@H](c1ccccc1)C1CC1)c1ccc2[nH]nc(-c3ccc(OC4CCN(C(=O)CO)CC4)cc3)c2c1` [Example A382, (S)-N-(cyclopropyl(phenyl)methyl)-3-(4-((1-(2-hydroxyacetyl)piperidin-4-yl)oxy)phenyl)-1H-indazole-5-carboxamide], the GI50 in assay [1] is < 100 nM; in assay [2] (Homo sapiens, PA-1), < 100 nM. Further, the 50% inhibitory concentration (IC50) at human TTK is < 100 nM.
Consider `O=C(NCC1(N2CCOCC2)CCCCC1)c1ccc2[nH]nc(-c3ccc(N4CC5CCC(C4)O5)cc3)c2c1` [Example A483, 3-(4-(8-oxa-3-azabicydo[3.2.1]octan-3-yl)phenyl)-N-((1-morpholinocyclohexyl)methyl)-1H-indazole-5-carboxamide], for which the concentration for 50% growth inhibition (GI50) in assay [1] was 100 to 500 nM; in assay [2] (Homo sapiens, PA-1), 100 to 500 nM. In addition, on human TTK, the 50% inhibitory concentration (IC50) is < 100 nM.
Turning to `CC(C)(O)CN1CCC(Oc2ccc(-c3n[nH]c4ccc(C(=O)N[C@H](c5ccccn5)C5CCCC5)cc34)cc2)CC1` [Example A231, (S)-N-(cyclopentyl(pyridin-2-yl)methyl)-3-(4-((1-(2-hydroxy-2-methylpropyl)piperidin-4-yl)oxy)phenyl)-1H-indazole-5-carboxamide], the concentration for 50% growth inhibition (GI50) in assay [1] is < 100 nM; in assay [2] (Homo sapiens, PA-1), < 100 nM. Besides, at human TTK, the 50% inhibitory concentration (IC50) is < 100 nM.
As to `CN1CCC(Oc2ccc(-c3n[nH]c4ccc(C(=O)NCC5(c6ccccc6)CCOCC5)cc34)cc2)CC1` [Example A473, 3-(4-((1-methylpiperidin-4-yl)oxy)phenyl)-N-((4-phenyltetrahydro-2H-pyran-4-yl)methyl)-1H-indazole-5-carboxamide], the 50% growth inhibitory concentration (GI50) in assay [1] (setting [3]) and in assay [2] (setting [4]) was 100 to 500 nM throughout. For the same compound, the IC50 at human TTK is < 100 nM.
Take `CN1C2COCC1CC(Oc1ccc(-c3n[nH]c4ccc(C(=O)N[C@H](c5ccccn5)C5CC5)cc34)cc1)C2` (stereo partly drawn) [Example A389, N-((S)-cyclopropyl(pyridin-2-yl)methyl)-3-(4-(((1R,5S,7s)-9-methyl-3-oxa-9-azabicyclo[3.3.1]nonan-7-yl)oxy)phenyl)-1H-indazole-5-carboxamide]: the GI50 in assay [1] was < 100 nM; in assay [2] (Homo sapiens, PA-1) it was < 100 nM. Also, the IC50 at human TTK was < 100 nM.
As for `CN1CCC(Oc2ccc(-c3n[nH]c4ccc(C(=O)NCC5(c6ccccn6)CCCCC5)cc34)cc2)CC1` [Example A474, 3-(4-((1-methylpiperidin-4-yl)oxy)phenyl)-N-((1-(pyridin-2-yl)cyclohexyl)methyl)-1H-indazole-5-carboxamide], the GI50 in assay [1] (setting [3]) and in assay [2] (setting [4]) was 100 to 500 nM in each case. For the same compound, the IC50 on human TTK is < 100 nM.
For `CC(C)[C@H](NC(=O)c1ccc2[nH]nc(-c3ccc(OC4CCN(C5COC5)CC4)nc3)c2c1)c1ccccc1Cl` [Example A294, (S)-N-(1-(2-chlorophenyl)-2-methylpropyl)-3-(6-((1-(oxetan-3-yl)piperidin-4-yl)oxy)pyridin-3-yl)-1H-indazole-5-carboxamide], the GI50 lay within 100 to 500 nM in assay [1] and 100 to 500 nM in assay [2] (Homo sapiens, PA-1). Also, the IC50 on human TTK is < 100 nM.
Consider `CN1CCC(Oc2ccc(-c3n[nH]c4ccc(C(=O)NCC5(c6ccccc6F)CCOCC5)cc34)cc2)CC1` [Example A476, N-((4-(2-fluorophenyl)tetrahydro-2H-pyran-4-yl)methyl)-3-(4-((1-methylpiperidin-4-yl)oxy)phenyl)-1H-indazole-5-carboxamide], for which the GI50 in assay [1] (setting [3]) and in assay [2] (setting [4]) was 100 to 500 nM in each case. Besides, at human TTK, the 50% inhibitory concentration (IC50) is < 100 nM.
Take `CCC(CC)(CNC(=O)c1ccc2[nH]nc(-c3ccc(N4CCOCC4)cc3)c2c1)c1ccccc1` [Example A437, N-(2-ethyl-2-phenylbutyl)-3-(4-morpholinophenyl)-1H-indazole-5-carboxamide]: the GI50 in assay [1] was in the range of 100 to 500 nM; in assay [2] (Homo sapiens, PA-1), 100 to 500 nM. The IC50 at human TTK is < 100 nM.
With `O=C(NCC1(c2cccs2)CCOCC1)c1ccc2[nH]nc(-c3ccc(OC4CCN(C5COC5)CC4)cc3)c2c1` [Example A433, 3-(4-((1-(oxetan-3-yl)piperidin-4-yl)oxy)phenyl)-N-((4-(thiophen-2-yl)tetrahydro-2H-pyran-4-yl)methyl)-1H-indazole-5-carboxamide], the GI50 lay within 100 to 500 nM in assay [1] and 100 to 500 nM in assay [2] (Homo sapiens, PA-1). Further, the IC50 on human TTK is < 100 nM.
`CN1CCC(Oc2ccc(-c3n[nH]c4ccc(C(=O)NCC5(N6CCOCC6)CCCCCC5)cc34)cc2)CC1` [Example A429, 3-(4-((1-methylpiperidin-4-yl)oxy)phenyl)-N-((1-morpholinocycloheptyl)methyl)-1H-indazole-5-carboxamide]: the 50% growth inhibitory concentration (GI50) was < 100 nM in assay [1] (setting [3]) and 100 to 500 nM in assay [2] (setting [4]). Besides, the concentration for half-maximal inhibition (IC50) on human TTK is < 100 nM.
For `O=C(N[C@@H](c1ccccn1)C1CC1)c1ccc2[nH]nc(-c3ccc(OC4CC5CCC(C4)N5C4COC4)cc3)c2c1` (stereo partly drawn) [Example A352, N-((R)-cyclopropyl(pyridin-2-yl)methyl)-3-(4-(((1R,3R,5S)-8-(oxetan-3-yl)-8-azabicyclo[3.2.1]octan-3-yl)oxy)phenyl)-1H-indazole-5-carboxamide], the GI50 in assay [1] was in the range of 100 to 500 nM; in assay [2] (Homo sapiens, PA-1) it was 100 to 500 nM. At human TTK, the IC50 is < 100 nM.
Consider `CN1CCC(Oc2ccc(-c3n[nH]c4ccc(C(=O)NCC5(c6ccncc6)CCCCC5)cc34)cc2)CC1` [Example A480, 3-(4-((1-methylpiperidin-4-yl)oxy)phenyl)-N-((1-(pyridin-4-yl)cyclohexyl)methyl)-1H-indazole-5-carboxamide], for which the GI50 in assay [1] (setting [3]) and in assay [2] (setting [4]) was 100 to 500 nM each time. Also, on human TTK, the IC50 is < 100 nM.
On to `CC(C)CC(NC(=O)c1ccc2[nH]nc(-c3ccc(OC4CCN(C5COC5)CC4)cc3)c2c1)c1ccccn1` (stereo not drawn) [Example A291, N-(3-methyl-1-(pyridin-2-yl)butyl)-3-(4-((1-(oxetan-3-yl)piperidin-4-yl)oxy)phenyl)-1H-indazole-5-carboxamide], for which the 50% growth inhibitory concentration (GI50) was < 100 nM in assay [1] and < 100 nM in assay [2] (Homo sapiens, PA-1). Also, on human TTK, the half-maximal inhibitory concentration (IC50) was < 100 nM.
In the case of `O=C(NC(c1ccccc1)C1CC1)c1ccc2[nH]nc(-c3ccc(N[C@H]4CC[C@H](O)CC4)cc3)c2c1` (stereo partly drawn) [Example A106, trans-N-(cyclopropyl(phenyl)methyl)-3-(4-(((1r,4r)-4-hydroxycyclohexyl)amino)phenyl)-1H-indazole-5-carboxamide], the GI50 in assay [1] (setting [3]) and in assay [2] (setting [4]) was < 100 nM throughout. On human TTK, the half-inhibitory concentration (IC50) was < 100 nM.
As for `CC(C)C(NC(=O)c1ccc2[nH]nc(-c3ccc(OC4CC5COCC(C4)N5C)cc3)c2c1)c1ccccc1Cl` [Example A393, N-(1-(2-chlorophenyl)-2-mcthylpropyl)-3-(4-(((1R,5S,7s)-9-methy]-3-oxa-9-azabicyclo[3.3.1]nonan-7-yl)oxy)phenyl)-1H-indazole-5-carboxamide], the GI50 in assay [1] was < 100 nM; in assay [2] (Homo sapiens, PA-1), < 100 nM. For the same compound, the 50% inhibitory concentration (IC50) at human TTK was < 100 nM.
